Reference: patent publication US9271962B2 (NORTHEASTERN UNIVERSITY, priority 2008, dated 2016)

How the values were obtained:
[1] = biological target: T1, hMGL (Homo sapiens, UniProt Q99685); assay: Fluorescent enzyme assay, MGL (AHMMCE hydrolysis); format: biochemical; details: for inhibition at 0.01 µM: 10 nM inhibitor, read-out: % Inhibition of Enzyme by inhibitor, MGL, 10 nM; for inhibition at 0.01 µM / inhibition at 1 µM: AHMMCE substrate, screening assay; for inhibition at 1 µM: 1000 nM inhibitor; for inhibition at 100 µM: 100 uM inhibitor, printed in the 1000 nM column
T1 construct: A full-length cDNA clone of the human MGL transcript variant 1; made in house; host or cells: E. coli BL21 (DE3)
T1 sequence (Q99685 2-303 limits assumed): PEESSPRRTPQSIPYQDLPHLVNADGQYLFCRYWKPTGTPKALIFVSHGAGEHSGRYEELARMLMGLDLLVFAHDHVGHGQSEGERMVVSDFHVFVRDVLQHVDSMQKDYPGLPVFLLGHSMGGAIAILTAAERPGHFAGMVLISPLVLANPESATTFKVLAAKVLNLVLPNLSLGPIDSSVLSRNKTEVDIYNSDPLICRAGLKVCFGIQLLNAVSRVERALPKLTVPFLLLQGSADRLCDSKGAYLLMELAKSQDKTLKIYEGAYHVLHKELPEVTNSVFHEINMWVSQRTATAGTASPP
Method: (§1) Some analogs were tested for their FAAH/MGL inhibitory activity, which is expressed as % of inhibition (Tables 2, 3, and 4 below). The percentage of inhibition results from three-point assay (three concentrations of inhibitor are used) and it is less accurate (preliminary screening) than the IC50/Ki values that are determined from eight-point assay (eight different concentrations of inhibitor were used). The percentage of inhibition describes the percentage by which the inhibitor reduces the velocity/rate of AAMCA (arachidonoyl-7-amino-4-methylcoumarin amide) or AHMMCE (arachidonoyl-7-hydroxy-6-methoxy-4-methylcoumarin ester) hydrolysis by FAAH or MGL respectively. The IC50 is the concentration of the inhibitor, which results in 50% inhibition of the velocity/rate of AAMCA (arachidonoyl 7-amino-4-methylcoumarin amide) hydrolysis by FAAH or AHMMCE (Arachidonoyl, 7-hydroxy-6-methoxy-4-methylcoumarin ester) hydrolysis by MGL. The Ki value is the affinity constant and describes the ability of the compounds to inhibit the function of FAAH or MGL. The lower the IC50/Ki values, the higher the affinity of the inhibitor for the enzyme and the higher its inhibitory activity. A detailed description of the methods used to test inhibitory activity of compounds is given below.
A full-length cDNA clone of the human MGL transcript variant 1 (gi: 51242951) was obtained from OriGene Technologies (Rockville, Md.). The coding part of the MGL sequence (except the translation initiation codon ATG) was amplified by a polymerase chain reaction (PCR) using forward […] and reverse […] primers containing PmlI and SacI restriction enzyme recognition sites, respectively. iProof high-fidelity DNA polymerase (Bio-Rad, Hercules, Calif.) was used in the PCR amplification with 33 cycles, each consisting of denaturation at 94° C. for 10 s, annealing at 55° C. for 33 s, and extension at 72° C. for 1 min. The PCR product and pET45b vector were digested with PmlI and SacI restriction enzymes, and the vector was dephosphorylated with CIP followed by in-gel purification using the MinElute Gel Extraction Kit (Qiagen Corp., Valencia, Calif.). The fragment was inserted into the vector directly downstream after the 6 histidine and valine codons, generating the construct pET45His6hMGL for expression of hMGL containing an N-terminal His6-tag. GC10 E. coli cells were used for DNA transformation and plasmid propagation. Mini- and midi-scale plasmid DNA preparations were performed using a GenElute Plasmid Miniprep Kit (Sigma) and PureYield Plasmid Midiprep System (Promega, Madison, Wis.), respectively. In-frame vector-fragment junctions and the coding sequence of the recombinant gene were confirmed by sequencing. The pET45His6hMGL construct was transformed into BL21 (DE3) and Origami (DE3) E. coli expression strains (Novagen, Madison, Wis.).
A single E. coli BL21 (DE3) colony containing the pET45His6hMGL plasmid was inoculated into 12 mL of Luria broth-ampicillin medium and grown overnight with shaking (250 rpm) at 37° C. The next morning, 10 mL of this culture was inoculated into 1 L of fresh Luria broth-ampicillin and allowed to grow until culture turbidity reached an (OD)600 of 0.6-0.8, at which time expression from the T7 promoter was induced by adding isopropyl-β-D-thio-galactopyranoside (1 mM). After 5 h induction, the cells were harvested by centrifugation at 5,000 g for 10 min at 4° C., washed with PBS, and held at −80° C. Five grams (wet-weight) of cells were resuspended in 50 mL lysis buffer (100 mM NaCl; 50 mM Tris, pH 8.0) supplemented with Triton X-100 (0.5%), lysozyme (0.2 mg/mL), and DNase I (25 μg/ml) and disrupted on ice by three, one-min sonication cycles, each consisting of 1-sec sonication bursts at 50 W power separated from each other by a 2-sec interval (Vibra-Cell 500 W, Sonics, Newtown, Conn.). The cell lysate was centrifuged at 10,000 g for 30 min at 4° C. […]

[2] = biological target: T2, ΔTM rFAAH (Rattus norvegicus, UniProt P97612); assay: Fluorescent enzyme assay, FAAH (AAMCA hydrolysis); format: biochemical; details: for inhibition at 0.01 µM: 10 nM inhibitor; for inhibition at 0.01 µM / inhibition at 1 µM: AAMCA substrate, screening assay; for inhibition at 1 µM: 1000 nM inhibitor
T2 construct: 15 ug of ΔTM rFAAH (cell lysate obtained by recombinant procedure); made in house
T2 sequence (P97612 30-579 limits assumed): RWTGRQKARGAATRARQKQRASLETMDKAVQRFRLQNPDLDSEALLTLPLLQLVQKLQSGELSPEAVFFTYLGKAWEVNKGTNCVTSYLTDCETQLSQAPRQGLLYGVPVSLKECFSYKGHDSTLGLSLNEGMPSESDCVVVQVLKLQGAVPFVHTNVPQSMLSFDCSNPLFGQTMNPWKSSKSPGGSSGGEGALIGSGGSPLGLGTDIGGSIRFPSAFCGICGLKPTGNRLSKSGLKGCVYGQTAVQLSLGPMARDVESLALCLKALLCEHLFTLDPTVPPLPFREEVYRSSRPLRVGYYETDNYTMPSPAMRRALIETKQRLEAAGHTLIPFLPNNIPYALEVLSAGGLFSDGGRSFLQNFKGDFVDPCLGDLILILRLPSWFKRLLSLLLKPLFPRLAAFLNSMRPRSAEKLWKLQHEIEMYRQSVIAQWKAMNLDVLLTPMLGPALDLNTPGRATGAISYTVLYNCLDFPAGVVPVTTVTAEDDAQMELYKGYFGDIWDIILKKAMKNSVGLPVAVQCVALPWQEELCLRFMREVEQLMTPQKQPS
Method: as §1
The enzyme (FAAH and MGL) assays were performed in 96 well plates (Coster #3650) in a total volume of 200 uL. Fluorogenic substrate AAMCA (arachidonoyl 7-amino-4-methylcoumarin amide) for FAAH and AHMMCE (arachidonoyl 7-hydroxy-6-methoxy-4-methylcoumarin ester) for MGL were used using BioTek Synergy HT Microplate Reader. Compounds and substrates were dissolved in DMSO provide a 10 mM stock solution and kept as a stock solution at −20° C. until used for assay. Stock solutions were thawed and reconstituted in 50:50 DMSO/assay buffer to a final DMSO concentration per well below 8%. This ensures that the compounds and substrate are in solution during assay. […] Appropriate substrate was added to adjust the final concentration in each well to 20 uM for FAAH (2× Km) and 10 uM for MGL (1×KM). Fluorescence readings were performed at λex=360/λem=460 for 4 h using Kinetic assay protocol at every 20 min (the fluorescent product coumarin produced is quantitated by this procedure). The readings at 3 h for FAAH and 2 h for MGL (linear maximum hydrolysis kinetics of enzyme on substrate) were used to calculate percent inhibition based on controls. Compounds which had more than 50 percent inhibition at 10 uM were selected for dose response study to determine IC50 values. The dose response at 8 concentration points was performed as with the screening assay except that compounds were serially diluted to 8 concentration points which were chosen based on IC50 value, which were calculated from the screening assay results. Assays are run twice in triplicates and Graphpad Prism software is used to plot inhibition data to obtain IC50 values.

Row | Structure (SMILES) | inhibition at 0.01 µM [1] | inhibition at 0.01 µM [2] | inhibition at 1 µM [1] | inhibition at 1 µM [2] | further results
1 | CN(C)C(=O)n1nnc(Cc2ccc(OC(F)(F)F)cc2)n1 [Compound 19a] | 99% | 92% | – | – | –
2 | CN(C)C(=O)n1nnc(Cc2ccc(Cl)cc2Cl)n1 [Compound 17a, 5-(2,4-dichlorobenzyl)-N,N-dimethyl-2H-tetrazole-2-carboxamide] | 99% | 93% | – | – | –
3 | CC(=O)Nc1ccc(Cc2nnnn2C(=O)N(C)C)cc1 [Compound 25b] | – | – | 90% | 88% | –
4 | CN(C)C(=O)N1CC(Cc2ccccc2)OC1=O (stereo not shown) [Compound 32, 5-benzyl-N,N-dimethyl-2-oxooxazolidine-3-carboxamide] | – | – | 3% | 5% | –
5 | CN(CCCCCl)C(=O)n1cnc(-c2ccccc2)n1 [Compound 53, N-(4-chlorobutyl)-N-methyl-3-phenyl-1H-1,2,4-triazole-1-carboxamide] | 13% | – | 71% | 100% | –
6 | CN(C)C(=O)n1nnc2ccccc21 [Compound 28, N,N-dimethyl-1H-benzo[d][1,2,3]-triazole-1-carboxamide] | 30% | 67% | – | – | –
7 | CN(C(=O)n1nnnc1Cc1ccc(Cl)cc1Cl)c1ccccc1 [Compound 7b] | 8% | 89% | – | – | –
8 | CN(C)C(=O)n1nnnc1Cc1ccc(Cl)cc1 [Compound 21b] | 54% | 93% | – | – | –
9 | CSc1ccc(Cc2nnn(C(=O)N(C)C)n2)cc1 [Compound 23a] | 98% | 91% | – | – | –
10 | CC(=O)Nc1ccc(Cc2nnn(C(=O)N(C)C)n2)cc1 [Compound 25a] | – | – | 99% | 100% | –
11 | CN(C)C(=O)n1nnnc1Cc1ccccc1 [Compound 35, 5-benzyl-N,N-dimethyl-1H-tetrazole-1-carboxamide] | 41% | 81% | – | – | –
12 | Cc1ccc(Cc2nnn(C(=O)N(C)C)n2)cc1 [Compound 26a, N,N-dimethyl-5-(4-methylbenzyl)-2H-tetrazole-2-carboxamide] | 96% | 93% | – | – | –
13 | CN(C)C(=O)n1cnc2cncnc21 [Compound 61, N,N-dimethyl-9H-purine-9-carboxamide] | – | – | 87% | 87% | –
14 | CN(C)C(=O)n1nnnc1Cc1ccc(C(F)(F)F)cc1 [Compound 20b] | 6% | 90% | – | – | –
15 | CN(C)C(=O)n1cnc2nc(OCc3ccccc3)ncc21 [Compound 59, 2-(benzyloxy)-N,N-dimethyl-7H-purine-7-carboxamide] | – | – | – | – | inhibition at 100 µM [1]: 86%; inhibition at 100 µM ([2]; 100 uM inhibitor, printed in the 1000 nM column): 10%
16 | CN(C)C(=O)n1nnc(Cc2ccc(C(F)(F)F)cc2)n1 [Compound 20a, N,N-dimethyl-5-[4-(trifluoromethyl)benzyl]-2H-tetrazole-2-carboxamide] | 98% | 93% | – | – | –
17 | O=C(N1CCC2(CC1)OCCO2)n1nnc(Cc2ccc(Cl)cc2Cl)n1 [Compound 14] | – | – | 52% | 97% | –
18 | COc1ccc(Cc2nnnn2C(=O)N(C)C)cc1 [Compound 24b] | – | – | 96% | 100% | –
19 | CN(C)C(=O)n1ccc(-c2ccccc2)n1 [Compound 30, N,N-dimethyl-3-phenyl-1H-pyrazole-1-carboxamide] | – | – | 11% | 23% | –
20 | Cc1ccc(Cc2nnnn2C(=O)N(C)C)cc1 [Compound 26b] | 23% | 85% | – | – | –
21 | CN(C)C(=O)n1nnnc1Cc1ccc(Cl)cc1Cl [Compound 17b] | 97% | 86% | – | – | –
22 | CN(C)C(=O)n1nnc(Cc2ccccc2)n1 [Compound 34, 5-benzyl-N,N-dimethyl-2H-tetrazole-2-carboxamide] | 100% | 91% | – | – | –
23 | CN(C)C(=O)n1nnc(Cc2ccc([N+](=O)[O-])cc2)n1 [Compound 22a, N,N-dimethyl-5-(4-nitrobenzyl)-2H-tetrazole-2-carboxamide] | 97% | 92% | – | – | –
24 | O=C(N1CCN(Cc2ccccc2)CC1)n1nnc(Cc2ccc(Cl)cc2Cl)n1 [Compound 15] | – | – | 63% | 95% | –
25 | CN(C(=O)n1nnc(Cc2ccc(Cl)cc2Cl)n1)c1ccccc1 [Compound 7a, 5-(2,4-dichlorobenzyl)-N-methyl-N-phenyl-2H-tetrazole-2-carboxamide] | 58% | 84% | – | – | –
26 | CN(C)C(=O)n1nnc(Cc2ccncc2)n1 [Compound 39, N,N-dimethyl-5-(pyridin-4-ylmethyl)-2H-tetrazole-2-carboxamide] | – | – | 40% | 21% | –
27 | CN(C)C(=O)n1nnc(Cc2ccc3ccccc3c2)n1 [Compound 51] | – | – | – | 30% | inhibition at 100 µM [1]: 26%
